Data as given in publication PMC8950151, “Synthesis and Evaluation of the Antifungal and Toxicological Activity of Nitrofuran Derivatives” (Pharmaceutics, 2022).
≈ marks a conversion by molar mass, not a printed value. Where two headings read alike, the source gives them in different places.

What was measured:
[1] = system: Candida albicans (ATCC 90028); assay: Susceptibility test (CLSI M27-A3 broth microdilution, resazurin readout), MIC90; type: cell-based; conditions: ATCC90028, C. albicans, 24 h, 37 °C
[2] = system: C. krusei (ATCC 6258); assay: as above; type: cell-based, Candida krusei; conditions: Pichia kudriavzevii
[3] = system: C. glabrata (ATCC 90030); assay: as above; type: cell-based, Candida glabrata; conditions: Nakaseomyces glabratus, ATCC90030, 24 h, 37 °C
[4] = system: Cryptococcus neoformans (H99/ATCC 208821); assay: as above; type: cell-based
[5] = system: Histoplasma capsulatum (G217-B/ATCC 26032); assay: microbe, parasite or virus in culture; type: cell-based; conditions: ATCC26032, 144 h
[6] = system: T. rubrum (ATCC 28289); assay: Susceptibility assay for dermatophytes (CLSI M38-A2, resazurin), MIC90; type: cell-based; conditions: Trichophyton rubrum, ATCC28289, 96 h, 35 °C
[7] = system: Trichophyton mentagrophytes (ATCC 11481); assay: as above; type: cell-based; conditions: T. mentagrophytes, 35 °C
[8] = system: Candida albicans (ATCC 90028); assay: Minimum fungicidal concentration (MFC); type: cell-based; conditions: ATCC90028, C. albicans
[9] = system: C. krusei (ATCC 6258); assay: Minimum fungicidal concentration (MFC); type: cell-based, Candida krusei; conditions: Pichia kudriavzevii, ATCC6258
[10] = system: C. glabrata (ATCC 90030); assay: Minimum fungicidal concentration (MFC); type: cell-based, Candida glabrata; conditions: Nakaseomyces glabratus, ATCC90030
[11] = system: Cryptococcus neoformans (H99/ATCC 208821); assay: Minimum fungicidal concentration (MFC); type: cell-based; conditions: ATCC208821, C. neoformans
[12] = system: Histoplasma capsulatum (G217-B/ATCC 26032); assay: microbe, parasite or virus in culture; type: cell-based; conditions: ATCC26032
[13] = system: Paracoccidioides brasiliensis (Pb 18); assay: microbe, parasite or virus in culture; type: cell-based; conditions: Paracoccidioides brasiliensis
[14] = system: T. rubrum (ATCC 28289); assay: Minimum fungicidal concentration (MFC); type: cell-based, Trichophyton rubrum; conditions: Trichophyton rubrum, ATCC28289
[15] = system: Trichophyton mentagrophytes (ATCC 11481); assay: Minimum fungicidal concentration (MFC); type: cell-based; conditions: T. mentagrophytes; for MFC: Trichophyton mentagrophytes, ATCC11481; for fungistatic / fungicidal profile: MFC versus MIC90
[16] = system: A549 (ATCC CCL-185) lung epithelial cell line; assay: Cytotoxicity assay in monolayer by resazurin colorimetric method; type: cell-based; conditions: Homo sapiens, A549 cells, 72 h
[17] = in vivo; conditions: AU37 [glp-4 (bn2) I, sek-1 (km4) X], Caenorhabditis elegans, C. elegans larvae viability
Procedure: The experiments were carried out with the mutant strain (AU37 [glp-4 (bn2) I; […]]). The strain was maintained on plates containing nematode growth medium (NGM) seeded with Escherichia coli OP50 at 16 °C. The stage of synchronization of young adults at stage L4 was performed for the toxicity test. About 20 larvae were transferred to each well of 96-well plates containing 100 μL of a medium composed of 60% of 50 mM NaCl; 40% BHI broth; 10 mg/mL cholesterol in ethanol; 200 mg/mL ampicillin and 90 mg/mL kanamycin. Then, 100 μL of dilutions of nitrofuran derivatives (showing the best selectivity index against the fungal species) were added. […] Plates were incubated at 25 °C for 24 h. Survival was assessed by the mobility and shape of the nematode (stick-shaped larvae were considered dead, while sinusoidal larvae were considered alive) under an inverted optical microscope on 40× objective lenses.

[18] = in vitro; conditions: human
[19] = Trichophyton mentagrophytes, ATCC11481, 96 h, read-out: MIC90

Compound	MIC90 [1] [µg/mL]	MIC90 ([2]; ATCC6258, 24 h) [µg/mL]	MIC90 [3] [µg/mL]	MIC90 ([4]; ATCC208821, 48 h) [µg/mL]	MIC90 [5] [µg/mL]	MIC90 [6] [µg/mL]	MIC90 [7, 19] [µg/mL]	MFC [8] [µg/mL]	MFC [9] [µg/mL]	MFC [11] [µg/mL]	MFC [12] [µg/mL]	MFC [13] [µg/mL]	MFC [14] [µg/mL]	MFC [15] [µg/mL]	IC50 [16] [µg/mL]	IC50 [18] [µg/mL]	MFC ([10]; C. glabrata, read-out: MFC) [µg/mL]	other results
O=C(NCCCc1ccccc1)c1ccc([N+](=O)[O-])o1 [Compound 5]	125 (≈ 456 µM)	62.5 (≈ 228 µM)	125 (≈ 456 µM)	7.81 (≈ 28.5 µM)	1.95 (≈ 7.11 µM)	15.7 (≈ 57.1 µM)	31.2 (≈ 114 µM)	250 (≈ 911 µM)	62.5 (≈ 228 µM)	15.6 (≈ 56.9 µM)	1.95 (≈ 7.11 µM)	31.2 (≈ 114 µM)	31.2 (≈ 114 µM)	62.5 (≈ 228 µM)	30.1 (≈ 110 µM)	39.8 (≈ 145 µM)	–	MIC ([4]; ATCC208821, 48 h, read-out: MIC90): 3.9 µg/mL (≈ 14.2 µM); MFC [10]: 125 µg/mL (≈ 456 µM); viability at 24 h, 250 µg/mL [17]: 85.7%
O=C(NCCc1ccccn1)c1ccc([N+](=O)[O-])o1 [Compound 3, 5-nitro-N-(2-(pyridin-2-yl)ethyl)furan-2-carboxamide]	> 250	250 (≈ 957 µM)	> 250	31.2 (≈ 120 µM)	3.9 (≈ 14.9 µM)	125 (≈ 478 µM)	62.5 (≈ 239 µM)	> 250	> 250	62.5 (≈ 239 µM)	3.9 (≈ 14.9 µM)	0.98 (≈ 3.75 µM)	125 (≈ 478 µM)	250 (≈ 957 µM)	231 (≈ 885 µM)	250 (≈ 957 µM)	> 250	fungistatic / fungicidal profile [15]: fungistatic profile; viability at 24 h, 250 µg/mL [17]: 82.5%
O=C(/C=C/c1ccc([N+](=O)[O-])o1)c1ccc(F)cc1 [Compound 9]	15.6 (≈ 59.8 µM)	250 (≈ 957 µM)	31.2 (≈ 120 µM)	7.81 (≈ 29.9 µM)	3.9 (≈ 14.9 µM)	0.98 (≈ 3.75 µM)	1.95 (≈ 7.47 µM)	31.2 (≈ 120 µM)	> 250	15.6 (≈ 59.8 µM)	3.9 (≈ 14.9 µM)	1.95 (≈ 7.47 µM)	1.95 (≈ 7.47 µM)	1.95 (≈ 7.47 µM)	23.4 (≈ 89.6 µM)	47.2 (≈ 181 µM)	> 250	–
O=C(NCc1ccccn1)c1ccc([N+](=O)[O-])o1 [Compound 4]	250 (≈ 1010 µM)	250 (≈ 1010 µM)	> 250	31.2 (≈ 126 µM)	3.9 (≈ 15.8 µM)	125 (≈ 506 µM)	31.2 (≈ 126 µM)	> 250	250 (≈ 1010 µM)	62.5 (≈ 253 µM)	3.9 (≈ 15.8 µM)	7.81 (≈ 31.6 µM)	125 (≈ 506 µM)	250 (≈ 1010 µM)	29.5 (≈ 119 µM)	135 (≈ 547 µM)	> 250	fungistatic / fungicidal profile [15]: fungistatic profile
C[C@@H]1[C@H](O)[C@@H](C)/C=C/C=C/C=C/C=C/C=C/C=C/C=C/[C@H](O[C@@H]2O[C@H](C)[C@@H](O)[C@H](N)[C@@H]2O)C[C@@H]2O[C@](O)(C[C@@H](O)C[C@@H](O)[C@H](O)CC[C@@H](O)C[C@@H](O)CC(=O)O[C@H]1C)C[C@H](O)[C@H]2C(=O)O [AmB, amphotericin B, reference compound]	–	–	–	–	0.03 (≈ 0.0325 µM)	–	–	–	–	–	–	–	–	–	–	–	–	MIC90 ([2]; ATCC6258, C. krusei, 24 h, 37 °C, read-out: MIC90): 1 µg/mL (≈ 1.08 µM); MIC90 ([4]; ATCC208821, C. neoformans, 48 h, 37 °C, read-out: MIC90): 0.06 µg/mL (≈ 0.0649 µM)
O=C(/C=C/c1ccc([N+](=O)[O-])o1)c1ccc(Br)cc1 [Compound 11]	125 (≈ 388 µM)	250 (≈ 776 µM)	250 (≈ 776 µM)	≥ 250	0.48 (≈ 1.49 µM)	7.8 (≈ 24.2 µM)	7.8 (≈ 24.2 µM)	250 (≈ 776 µM)	> 250	≥ 250	0.48 (≈ 1.49 µM)	0.98 (≈ 3.04 µM)	15.6 (≈ 48.4 µM)	7.8 (≈ 24.2 µM)	12.2 (≈ 38 µM)	62.6 (≈ 194 µM)	> 250	viability at 24 h, 250 µg/mL [17]: 80%
CN(C)CCCNC(=O)c1ccc([N+](=O)[O-])o1 [Compound 6]	> 250	> 250	> 250	250 (≈ 1040 µM)	> 250	> 250	> 250	> 250	> 250	250 (≈ 1040 µM)	> 250	31.2 (≈ 130 µM)	> 250	> 250	13.2 (≈ 54.8 µM)	15.6 (≈ 64.7 µM)	> 250	–
CSc1ccc(C(=O)/C=C/c2ccc([N+](=O)[O-])o2)cc1 [Compound 13]	> 250	> 250	> 250	≥ 250	125 (≈ 432 µM)	0.98 (≈ 3.39 µM)	0.98 (≈ 3.39 µM)	> 250	> 250	≥ 250	125 (≈ 432 µM)	0.98 (≈ 3.39 µM)	1.95 (≈ 6.74 µM)	0.98 (≈ 3.39 µM)	17.9 (≈ 61.9 µM)	4.15 (≈ 14.3 µM)	> 250	–
O=C(NCCc1c[nH]c2ccccc12)c1ccc([N+](=O)[O-])o1 [Compound 7]	250 (≈ 835 µM)	250 (≈ 835 µM)	> 250	62.5 (≈ 209 µM)	0.98 (≈ 3.27 µM)	125 (≈ 418 µM)	125 (≈ 418 µM)	> 250	> 250	62.5 (≈ 209 µM)	0.98 (≈ 3.27 µM)	1.95 (≈ 6.52 µM)	> 250	> 250	8.58 (≈ 28.7 µM)	71.2 (≈ 238 µM)	> 250	–
O=C(/C=C/c1ccc([N+](=O)[O-])o1)c1cc(F)c(Cl)cc1Cl [Compound 17, (E)-1-(2,4-dichloro-5-fluorophenyl)-3-(5-nitrofuran-2-yl)prop-2-en-1-one]	> 250	> 250	> 250	≥ 250	> 250	> 250	> 250	> 250	> 250	≥ 250	> 250	3.9 (≈ 11.8 µM)	> 250	> 250	68.2 (≈ 207 µM)	1.56 (≈ 4.73 µM)	> 250	–
O=C(/C=C/c1ccc([N+](=O)[O-])o1)c1ccc(-n2ccnc2)cc1 [Compound 14]	15.6 (≈ 50.4 µM)	15.6 (≈ 50.4 µM)	7.81 (≈ 25.3 µM)	3.9 (≈ 12.6 µM)	7.81 (≈ 25.3 µM)	1.95 (≈ 6.3 µM)	1.95 (≈ 6.3 µM)	62.5 (≈ 202 µM)	31.2 (≈ 101 µM)	3.9 (≈ 12.6 µM)	7.81 (≈ 25.3 µM)	1.95 (≈ 6.3 µM)	3.9 (≈ 12.6 µM)	1.95 (≈ 6.3 µM)	33.4 (≈ 108 µM)	26.8 (≈ 86.7 µM)	–	MFC [10]: 7.81 µg/mL (≈ 25.3 µM)
O=C(/C=C/c1ccc([N+](=O)[O-])o1)c1ccccc1 [Compound 8]	7.8 (≈ 32.1 µM)	250 (≈ 1030 µM)	7.81 (≈ 32.1 µM)	31.2 (≈ 128 µM)	15.6 (≈ 64.2 µM)	0.98 (≈ 4.03 µM)	0.98 (≈ 4.03 µM)	> 250	> 250	31.2 (≈ 128 µM)	15.6 (≈ 64.2 µM)	1.95 (≈ 8.02 µM)	1.95 (≈ 8.02 µM)	1.95 (≈ 8.02 µM)	53.8 (≈ 221 µM)	6.66 (≈ 27.4 µM)	> 250	–
O=C(/C=C/c1ccc([N+](=O)[O-])o1)c1ccc(Cl)cc1 [Compound 10]	250 (≈ 900 µM)	> 250	> 250	250 (≈ 900 µM)	7.81 (≈ 28.1 µM)	3.9 (≈ 14 µM)	3.9 (≈ 14 µM)	> 250	> 250	≥ 250	15.6 (≈ 56.3 µM)	0.98 (≈ 3.53 µM)	7.81 (≈ 28.1 µM)	7.81 (≈ 28.1 µM)	38.7 (≈ 139 µM)	215 (≈ 776 µM)	> 250	–
COc1ccc(C(=O)/C=C/c2ccc([N+](=O)[O-])o2)cc1 [Compound 12]	250 (≈ 915 µM)	250 (≈ 915 µM)	250 (≈ 915 µM)	62.5 (≈ 229 µM)	7.81 (≈ 28.6 µM)	0.98 (≈ 3.59 µM)	–	> 250	> 250	125 (≈ 457 µM)	15.6 (≈ 57.2 µM)	3.9 (≈ 14.3 µM)	1.95 (≈ 7.14 µM)	1.95 (≈ 7.14 µM)	250 (≈ 915 µM)	228 (≈ 834 µM)	> 250	MIC90 ([7]; 96 h): 1.95 µg/mL (≈ 7.14 µM); MIC90 ([7]; Trichophyton mentagrophytes, ATCC11481, 96 h): 0.98 µg/mL (≈ 3.59 µM); viability at 24 h, 250 µg/mL [17]: > 94%
